{"source": "patent US20220031710A1", "about": "“USE OF ERK5 INHIBITORS FOR TREATING GLIOMAS IN PEDIATRIC SUBJECTS” (UNIVERSITY OF PITTSBURGH - OF THE COMMONWEALTH SYSTEM OF …, priority 2019, published 2022)", "key": {"NSCs": {"test_system": "NSCs", "experiment": "Alamar blue viability EC50 in neural stem cells", "assay_type": "cell-based, human", "protocol": "Human Neural Stem Cells (H9 hESC-Derived) were purchased from Invitrogen and grown in DMEM/F12 containing penicillin/streptomycin/amphotericin B (1% vol/vol) supplemented with N2 (2% vol/vol; Invitrogen), EGF (20 ng/ml; Invitrogen), and FGF-2 (20 ng/ml; Invitrogen). DIPG cell lines (all with the H3K27M mutation) SU-DIPG-IV (DIPG-IV), SU-DIPG-13p (DIPG-13p), and HSJD-DIPG-007 (DIPG-007) were grown and passaged in DIPG medium as previously reported (Grasso et al., Nature medicine 2015; 21:555-9; Nagaraja et al., Cancer cell 2017; 31:635-52 e6; Vinci et al., Nature medicine 2018). SF8628 and immortalized NHAs were grown in DMEM (Invitrogen) supplemented with 10% FBS (Invitrogen). All cell lines were confirmed by STR profiling and tested mycoplasma negative by PCR. All tumor-derived cell lines used are described in Table 2.\nDirect cell counts were performed using the Countess II FL Automated Cell Counter (ThermoFisher Scientific). Alamar blue viability (ThermoFisher Scientific) and the 5-bromo-2′-deoxyuridine (BrdU) incorporated cell proliferation assay (Cell Signaling Technology Cat #6813) were performed using the manufacturer's standard protocol. EC50 curve analysis was performed using raw fluorescent Alamar blue values that were inputted into PRISM 7.0. Drug concentrations were log 10 transformed and values normalized to percent viability with respect to vehicle treated cells. […]"}, "DIPG-IV cells": {"test_system": "DIPG-IV cells", "experiment": "Cleaved Caspase 3/7 assay in DIPG-IV cells expressing ERK5 constructs", "assay_type": "cell-based, human", "settings": "500 nM; DIPG-IV cells expressing ERK5-HA or ERK5-HA T733E vs empty vector"}}, "data": [{"compound": "CCOc1cc(C(=O)N2CCC(N3CCN(C)CC3)CC2)ccc1Nc1ncc2c(n1)N(C1CCCC1)c1ccccc1C(=O)N2C", "note": "[ERK5-IN-1, 11-cyclopentyl-2-[[2-ethoxy-4-[[4-(4-methyl-1-piperazinyl)-1-piperidinyl]carbonyl]phenyl]amino]-5,11-dihydro-5-methyl-6H-pyrimido[4,5b][1,4]benzodiazepin-6-one]", "values": [{"measurement": "ERK5-IN-1 EC50 values", "setting": "NSCs; NSCs and NSCs over expressing wildtype H3, compared to H3K27M DIPG and hemispheric pGBM lines", "result": "higher"}, {"measurement": "ERK5-IN-1 EC50 values", "setting": "NSCs; NSCs expressing H3K27M", "result": "significantly lower"}, {"measurement": "cleaved Caspase 3/7 levels", "setting": "DIPG-IV cells", "result": "reduced cleaved Caspase 3/7 levels"}]}]}
